Paper PMC11173485, “Connecting GSK-3β Inhibitory Activity with IKK-β or ROCK-1 Inhibition to Target Tau Aggregation and Neuroinflammation in Alzheimer’s Disease—Discovery, In Vitro and In Cellulo Activity of Thiazole-Based Inhibitors” (Molecules, 2024)
Like-named read-outs stand apart in the source and are kept apart here.

Key:
GSK-3β = GSK-3β (Homo sapiens, UniProt P49841); assay: ADP-Glo kinase assay, GSK-3β inhibition; assay type: biochemical; set-up: purchased Promega; conditions: for IC50: mean ± SEM, ATP 25 µM
Text: We evaluated the inhibitory activity of the final compounds against GSK-3β, IKK-β, and ROCK-1 kinases using the commercially available ADP-Glo™ kinase assay. The method was based on the measurement of luminescence that correlates with kinase activity. […] The latter are inhibitors of the kinases of interest and were integral to the design of our studies.
Promega’s Kinase Enzyme Systems (Promega; Madison, WI, USA) were used to determine the activities of the tested compounds against the human recombinant kinases GSK-3β, IKK- β, and ROCK-1. The assays were performed according to the provided manufacturer’s instruction, based on the optimized conditions of the enzymatic reactions, using the low-volume, white polystyrene, 384-well plates. The ADP-Glo™ Assay (Promega; Madison, WI, USA) was used for bioluminescent detection of the kinase activity. Stock solutions of the tested compounds in DMSO (1mM) were diluted with the Kinase Assay Buffer before use (40 mM Tris, pH 7.5, enriched with 50 µM dithiothreitol; DTT), giving the final desired concentrations. The kinase enzymes, substrates, and ATP solutions were also diluted with the assay buffer prior to use. The GSK-3β, IKK-β, and ROCK-1 substrates were derived from human muscle glycogen synthase 1, human IkBA, and human 40S ribosomal protein S6, respectively. The assay procedure was as follows: At first, the appropriate kinase enzyme (GSK-3β: 10 ng per well; IKK-β: 45 ng per well; ROCK-1: 24 ng per well) was incubated with the tested sample (10 µM in well) for 5 min. The DMSO solution (1% in well) was used in the blank samples instead of the tested inhibitors. After the incubation period, ATP (25 µM per well in the case of GSK-3β and IKK-β kinases; 5 µM per well in the case of ROCK-1 kinase) and an appropriate enzyme substrate (0.2 µg/µL in well) were added to start the enzymatic reaction. The reaction mixture was kept at room temperature for 1 h; then, the ADP-Glo™ reagent was added, to terminate the kinase reaction and deplete any remaining ATP. After 40 min, a second reagent (Kinase Detection Reagent) was applied to convert the obtained ADP to ATP and to generate light from the newly synthesized ATP using a luciferase/luciferin reaction. The mixture was incubated for another 30 min at room temperature before the luminescence was measured. The calculations of the percent of kinases’ inhibition by tested compounds were based on the equation 100 − (S/B) × 100; S and B are the enzyme activities with and without the tested sample, respectively. […] Each compound was evaluated in two independent experiments, with every data point collected in duplicate.

[1] = Cytotoxicity, PrestoBlue cell viability assay in BV-2 cells; assay type: cell-based, mouse; conditions: mouse, BV-2 microglial cells; for IC50 at 24 h: PrestoBlue, mean ± SEM, read-out: Cytotoxicity in BV-2 Cells (IC50 x¯ ± SEM µM); for viability at 24 h, 1 µM: 1 µM (log C -6); for viability at 24 h, 50 µM: 50 µM (log C -4.3); for viability at 24 h, 100 µM: 100 µM (log C -4)
Procedure: (§1) We assessed their cytotoxic effects at five concentrations (0.1, 1, 10, 50, and 100 µM) in HT-22 (mouse hippocampal neuronal cells) and BV-2 (mouse microglial cells) cell lines using a fluorometric assay with PrestoBlue™ cell viability reagent (Table 4, Table S2 in the SI).
(§2) Mouse microglial cells (BV-2) were a generous gift from Professor Bozena Kaminska-Kaczmarek of the Laboratory of Molecular Neurobiology, Neurobiology Center, Nencki Institute of Experimental Biology, Polish Academy of Sciences, Warsaw, Poland. Cells were cultured in Dulbecco’s modified Eagle’s Medium-high glucose (DMEM, Glutamx Thermo Fisher, Waltham, MA, USA) supplemented with 10% inactivated fetal bovine serum (Thermo Fisher), 100 IU/mL penicillin (Merck), and 100 µg/mL streptomycin (Merck). Cells were cultured in flasks (area 175 cm^2, Nunc) and incubated at 37 °C, 5% CO2. To evaluate the level of NO, IL-6, and TNF-α and the effectiveness of the compounds tested, BV-2 microglia cells were cultured in 96-well culture plates (5 × 10^4 cells per well, Falcon). For the measurement of cell viability and cell membrane damage, cells were placed in 96-well culture plates (2 × 10^4 cells per well, Falcon). Before the tests, cells were grown for 24 h in the incubator (37 °C, 5% CO2). Mouse Hippocampal Neuronal Cell Line (HT-22) was a generous gift from Dr Bartosz Pomierny of the Department of Biochemical Toxicology, Jagiellonian University Medical College, Krakow, Poland. Cells were cultured in Dulbecco’s modified Eagle’s Medium-high glucose (DMEM, Glutamx Thermo Fisher) supplemented with 10% inactivated fetal bovine serum (Thermo Fisher), 100 IU/mL penicillin (Merck), and 100 µg/mL streptomycin (Merck). Cells were cultured in flasks (area 175 cm^2, Nunc) and incubated at 37 °C, 5% CO2. For the measurement of cell viability and neuroprotective effects against okadaic acid, cells were placed in 96-well culture plates (2 × 10^4 cells per well, Falcon). Before the tests, cells were grown for 24 h in the incubator (37 °C, 5% CO2).
(§3) Cell viability was evaluated using the PrestoBlue reagent (Thermo Fisher), according to the manufacturer’s procedures. Following 24 h of incubation with the tested molecule, PrestoBlue reagent was added to a microplate well in an amount equal to one-tenth of the remaining medium volume. The resulting mixture was incubated for 15 min at 37 °C, and the fluorescence intensity (EX 530; EM 580 nm) was measured using the plate reader POLARstar Omega, (BMG Labtech, Ortenberg, Germany). The results (viability values) are provided as a percentage of live cells with respect to DMSO (control sample).
(§4) Cytotoxic effects of selected inhibitors in HT-22 mouse hippocampal neuronal cells and BV-2 mouse microglial cells
(§5) Table S2. Cytotoxic effects of selected inhibitors in HT-22 mouse hippocampal neuronal cells and BV-2 mouse microglial cells. neurotoxicity in HT-22 cellsa immunotoxicity in BV-2 cellsa […]
(§6) a % of cell viability at the given concentration of tested compound; mean value ± standard deviation (SD) of triplicates; b half maximal inhibitory concentration of the tested compound; mean value ± standard error of the mean (SEM) of triplicates; c data obtained in log C of 39 of -8.5; -7.5; -6.5; -5.5; -5, respectively; d data obtained in log C of 49 of -7.5; -6.5; -5.5; -4.5; -4. respectively; nt, not tested.

[2] = system: BV-2 (mouse microglial cells); assay: as above; assay type: cell-based; conditions: for effect on cell viability in BV-2 cells (in words): 0.1, 1, 10, 50, and 100 µM
Procedure: as §1, §2, §3, §4, §5, §6

[3] = 24 h, read-out: immunotoxicity in BV-2 cells, % of cell viability
[4] = 10 µM (log C -5), 24 h, read-out: immunotoxicity in BV-2 cells, % of cell viability

Sequence of GSK-3β (P49841 whole entry): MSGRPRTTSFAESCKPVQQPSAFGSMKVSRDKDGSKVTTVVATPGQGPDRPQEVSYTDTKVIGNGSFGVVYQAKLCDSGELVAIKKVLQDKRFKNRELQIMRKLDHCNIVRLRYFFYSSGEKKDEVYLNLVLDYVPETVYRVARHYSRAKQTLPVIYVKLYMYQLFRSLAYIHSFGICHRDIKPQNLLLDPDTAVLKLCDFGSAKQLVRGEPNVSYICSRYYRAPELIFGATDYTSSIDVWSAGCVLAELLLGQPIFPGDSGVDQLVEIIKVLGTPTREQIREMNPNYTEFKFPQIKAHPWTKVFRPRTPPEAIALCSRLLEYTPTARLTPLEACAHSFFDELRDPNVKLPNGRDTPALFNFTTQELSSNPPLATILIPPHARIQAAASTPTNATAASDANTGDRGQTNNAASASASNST

Structure (SMILES)	IC50 (GSK-3β) [nM]	viability at 24 h, 10 µM ([1]; log C -5 (footnote c; printed in column 100 µM), read-out: immunotoxicity in BV-2 cells, % of cell viability) [%]	viability at 24 h, 3.16 µM ([1]; log C -5.5 (footnote c; printed in column 50 µM), read-out: immunotoxicity in BV-2 cells, % of cell viability) [%]	viability at 24 h, 0.316 µM ([1]; log C -6.5 (footnote c; printed in column 10 µM), read-out: immunotoxicity in BV-2 cells, % of cell viability) [%]	IC50 at 24 h ([1]; 24 h) [µM]	effect on cell viability in BV-2 cells (in words) [2]	viability at 24 h, 1 µM [1, 3] [%]	viability at 24 h, 10 µM [1, 4] [%]	viability at 24 h, 50 µM [1, 3] [%]	viability at 24 h, 100 µM [1, 3] [%]	viability at 24 h, 0.1 µM [1, 3] [%]	effect on viability of BV-2 cells at concentrations up to 10 µM (in words) [2]	inhibition at 10 µM (GSK-3β; 10 µM, mean ± SD, read-out: % inh. at 10 µM GSK-3β) [%]
CC(C)C(=O)Nc1cc(-c2cc3c(s2)C(=O)NC(C)(C)N3)ccn1 [Compound 39, N-(4-(2,2-Dimethyl-4-oxo-1,2,3,4-tetrahydrothieno [3,2-d]pyrimidin-6-yl)pyridin-2-yl)isobutyramide]	12	14	73	105	4.5 ± 1.9	decreased cells’ viability	–	–	–	–	–	–	–
CC1(C)NC(=O)c2sc(-c3ccnc(NC(=O)C4CC4)c3)cc2N1 [Compound 40, N-(4-(2,2-Dimethyl-4-oxo-1,2,3,4-tetrahydrothieno [3,2-d]pyrimidin-6-yl)pyridin-2-yl)-cyclopropanecarboxamide]	10	–	–	–	3.6 ± 0.7	decreased cells’ viability	109	9	2	2	106	–	–
CC1(C)NC(=O)c2sc(-c3ccnc(NC(=O)C4CCC4)c3)cc2N1 [Compound 41, N-(4-(2,2-Dimethyl-4-oxo-1,2,3,4-tetrahydrothieno [3,2-d]pyrimidin-6-yl)pyridin-2-yl)-cyclobutanecarboxamide]	32 ± 1	–	–	–	–	decreased cells’ viability	–	–	–	–	–	–	–
CC(C)C(=O)Nc1cc(-c2cc(NC(N)=O)c(C(N)=O)s2)ccn1 [Compound 48, 5-(2-Isobutyramidopyridin-4-yl)-3-ureidothiophene-2-carboxamide]	22	–	–	–	21.8 ± 3.8	decreased cells’ viability	97	66	20	–	103	–	–
NC(=O)Nc1cc(-c2ccnc(NC(=O)C3CC3)c2)sc1C(N)=O [Compound 49, 5-(2-(Cyclopropanecarboxamido)pyridin-4-yl)-3-ureidothiophene-2-carboxamide]	20	–	–	–	> 100	no significant decrease in cell viability	–	–	–	74	–	did not decrease the viability of the cells	–
NC(=O)Nc1cc(-c2ccnc(NC(=O)C3CCC3)c2)sc1C(N)=O [Compound 50, 5-(2-(Cyclobutanecarboxamido)pyridin-4-yl)-3-ureidothiophene-2-carboxamide]	34	–	–	–	> 100	no significant decrease in cell viability	107	114	96	50	101	–	–
NC(=O)Nc1cc(-c2cccc(NC(=O)C3CC3)c2)sc1C(N)=O [Compound 58, 5-(3-(Cyclopropanecarboxamido)phenyl)-3-ureidothiophene-2-carboxamide]	–	–	–	–	51.4 ± 0.8	decreased cells’ viability	107	97	52	13	106	did not decrease the viability of the cells	36
O=C1NC2(CCCC2)Nc2cc(-c3ccnc(NC(=O)C4CC4)c3)sc21 [Compound 60, N-(4-(4’-Oxo-3’,4’-dihydro-1’H-spiro[cyclopentane-1,2’-thieno [3,2-d]pyrimidin]-6’-yl)pyridin-2-yl)cyclopropanecarboxamide]	10	–	–	–	3	decreased cells’ viability	101	9	3	3	108	–	–
O=C1NC2(CCOC2)Nc2cc(-c3ccnc(NC(=O)C4CC4)c3)sc21 (stereo not shown) [Compound 62, N-(4-(4′-Oxo-3′,4,4′,5-tetrahydro-1′H,2H-spiro[furan-3,2′-thieno [3,2-d]pyrimidin]-6′-yl)pyridin-2-yl)cyclopropanecarboxamide]	8	–	–	–	54.8 ± 1.9	decreased cells’ viability	106	105	5	2	105	did not decrease the viability of the cells	–
COc1nc(-c2ccnc(NC(=O)C3CC3)c2)sc1C(N)=O [II, reference compound]	5	–	–	–	15.4 ± 0.6	decreased cells’ viability	102	60	27	4	97	–	–
